The text below walks through data of US9642787B2, “Method of inhibiting copper deposition on hair” (The Procter & Gamble Company, priority 2014, dated 2017).

A short description of data set [1]: Formation Constant (Log KML) of metal chelant complex with copper. Format: physicochemical. As to conditions: formation constant for copper, concentrations in mol/dm^3, logarithm. An excerpt: (§1) The Formation Constant of a metal chelant interaction is defined as: [formula] where: [ML]=concentration of metal ligand complex at equilibrium [M]=concentration of free metal ion [L]=concentration of free ligand in a fully deprotonated form KML=formation constant for the metal chelant complex. All concentrations are expressed in mol/dm^3. Formation Constants are conveniently expressed as logarithms.

Data set [2] in a line: Formation Constant (Log KML) of metal chelant complex with calcium. Format: physicochemical. The settings on record: formation constant for calcium, concentrations in mol/dm^3, logarithm.
From the text: as §1

With `N[C@@H](CO)C(=O)O` [Serine], the “Log KML Cu” value in data set [1] was 7.9. Also, the “Log KML Ca” value in data set [2] was 1.4.

`O=C(O)CC(NCCNC(CC(=O)O)C(=O)O)C(=O)O` (centres unmarked) [EDDS, ethylenediamine-N,N′-disuccinic acid]: the “Log KML Cu” value in data set [1] amounted to 18.4. Also, the “Log KML Ca” value in data set [2] was found to be 4.6.

For the compound `NC(=O)C[C@H](N)C(=O)O` [Asparagine], in data set [1], the “Log KML Cu” value stood at 7.8.

In the case of `C[C@H](N)C(=O)O` [Alanine], the “Log KML Cu” value in data set [1] is reported as 8.1. In data set [2], the “Log KML Ca” value is on record as 1.3.

Turning to `NCC(=O)O` [Glycine], the “Log KML Cu” value in data set [1] is recorded as 8.2. The “Log KML Ca” value in data set [2] was determined as 1.1.

For the compound `NC(=O)CC[C@H](N)C(=O)O` [Glutamine], the “Log KML Cu” value in data set [1] came out at 7.7.

Consider `N[C@@H](Cc1c[nH]cn1)C(=O)O` [Histidine], for which the “Log KML Cu” value in data set [1] is on record as 10.2. The “Log KML Ca” value in data set [2] is given as 1.2.

Regarding `O=C(O)[C@@H]1CCCN1` [Proline], the “Log KML Cu” value in data set [1] is 8.8.

As to `N[C@@H](Cc1c[nH]c2ccccc12)C(=O)O` [Tryptophan], the “Log KML Cu” value in data set [1] is listed as 8.2.
